ChEMBL document CHEMBL1201862, “PubChem BioAssay data set” (2004)
Active and inactive are the calls of the source.

Experiments:
[1] = target: T1, Bifunctional protein GlmU (Mycobacterium tuberculosis, UniProt P9WMN3); assay: Inhibitors of Mycobacterial Glucosamine-1-phosphate acetyl transferase (GlmU). Secondary screen.; design: species or system Mycobacterium tuberculosis H37Rv
T1 sequence (P9WMN3 whole entry): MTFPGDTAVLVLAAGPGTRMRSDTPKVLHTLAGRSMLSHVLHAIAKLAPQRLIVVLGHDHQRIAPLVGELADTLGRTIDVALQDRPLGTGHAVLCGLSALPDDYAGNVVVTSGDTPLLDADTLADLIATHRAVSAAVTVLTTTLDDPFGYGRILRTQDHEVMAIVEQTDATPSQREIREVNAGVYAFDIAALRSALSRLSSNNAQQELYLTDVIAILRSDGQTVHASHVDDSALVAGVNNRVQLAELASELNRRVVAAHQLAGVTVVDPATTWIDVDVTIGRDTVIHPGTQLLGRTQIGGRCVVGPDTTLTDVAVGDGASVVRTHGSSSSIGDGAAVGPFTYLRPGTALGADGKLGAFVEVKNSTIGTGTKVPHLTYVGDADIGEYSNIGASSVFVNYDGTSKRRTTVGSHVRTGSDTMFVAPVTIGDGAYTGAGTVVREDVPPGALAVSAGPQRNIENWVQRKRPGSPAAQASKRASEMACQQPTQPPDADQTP

[2] = target: Induced myeloid leukemia cell differentiation protein Mcl-1 (Homo sapiens, UniProt Q07820); format: functional
Chain of Induced myeloid leukemia cell differentiation protein Mcl-1 (Q07820 whole entry): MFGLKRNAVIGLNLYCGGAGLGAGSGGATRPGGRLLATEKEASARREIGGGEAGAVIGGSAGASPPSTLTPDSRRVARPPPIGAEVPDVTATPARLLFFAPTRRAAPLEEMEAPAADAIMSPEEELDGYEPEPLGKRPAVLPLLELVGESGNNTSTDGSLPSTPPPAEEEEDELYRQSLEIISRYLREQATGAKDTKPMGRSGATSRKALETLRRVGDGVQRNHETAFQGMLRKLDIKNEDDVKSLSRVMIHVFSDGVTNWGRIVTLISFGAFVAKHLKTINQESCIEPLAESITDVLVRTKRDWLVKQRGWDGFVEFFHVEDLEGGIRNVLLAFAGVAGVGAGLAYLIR

[3] = Luminescence Cell-Based Dose Retest to Confirm Inhibitors of Cancer Stem Cells. [Related pubchem assays (depositor defined):AID2717, AID2721]; format: functional; settings: Homo sapiens
[4] = cytotoxicity in HMLE control line with eGFP shRNA, dose response, counter-screen for HMLE_sh_ECad selective toxicity project, cell-based, HMLE_sh_eGFP, luminescence (AID 463074); format: functional, Homo sapiens;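 also: HMLE human mammary epithelial cells expressing control shRNA against eGFP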
[5] = target: T2, Polyadenylate-binding protein 1 (Homo sapiens, UniProt P11940); assay: PABP1 MLLE–PAM2 interaction inhibitors, dose response, miRNA deadenylation inhibitor project, biochemical, fluorescence polarization, Cy5-PAM2 peptide, secondary (AID 602260); format: functional; settings: read-out: IC50_Mean
T2 sequence (P11940 whole entry): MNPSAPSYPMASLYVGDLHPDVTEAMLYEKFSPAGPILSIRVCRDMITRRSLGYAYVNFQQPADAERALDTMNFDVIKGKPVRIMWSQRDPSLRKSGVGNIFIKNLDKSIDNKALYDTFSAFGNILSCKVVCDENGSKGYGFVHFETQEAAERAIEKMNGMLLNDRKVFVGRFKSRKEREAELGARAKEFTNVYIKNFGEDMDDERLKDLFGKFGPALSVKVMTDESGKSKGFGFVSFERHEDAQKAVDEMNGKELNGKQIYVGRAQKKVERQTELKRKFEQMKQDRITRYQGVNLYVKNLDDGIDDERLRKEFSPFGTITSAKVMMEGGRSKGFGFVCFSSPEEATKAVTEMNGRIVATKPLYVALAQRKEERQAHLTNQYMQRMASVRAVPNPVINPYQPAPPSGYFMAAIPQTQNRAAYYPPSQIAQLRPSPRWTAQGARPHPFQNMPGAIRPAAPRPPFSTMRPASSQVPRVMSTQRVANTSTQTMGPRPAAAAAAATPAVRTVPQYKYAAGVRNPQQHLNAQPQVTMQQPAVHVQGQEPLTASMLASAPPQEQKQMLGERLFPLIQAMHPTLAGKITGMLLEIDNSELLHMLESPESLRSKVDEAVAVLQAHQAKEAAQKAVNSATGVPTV

[6] = target: T2, Polyadenylate-binding protein 1; assay: PABP1 MLLE–PAM2 binding inhibitor potency, dose response, biochemical, fluorescence polarization, FITC-PAM2 peptide (AID 602259); format: functional; settings: read-out: IC50_Mean
[7] = inhibitors of intracellular T. cruzi replication, confirmation, NIH3T3 host cells, beta-gal luminescence (AID 2044); format: functional, cell-based;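 also: intracellular parasites grown in NIH/3T3 mouse fibroblasts as host cells; luminescent beta-galactosidase reporter signal from transgenic T. cruzi replicating inside host cells; inhibitors lower the luminescence signal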
[8] = cytotoxicity toward NIH3T3 fibroblasts, dose response, counter-screen, cell-based, ATP luminescence, mouse fibroblasts (AID 2010); format: functional;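 also: cells exposed to compound for about 90 hours before reading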
[9] = target: Sphingosine 1-phosphate receptor 1 (Homo sapiens, UniProt P21453); assay: Fluorescence-based counterscreen assay for S1P4 agonists: Cell-based dose response high throughput screening assay to identify agonists of the Sphingosine 1-Phosphate Receptor 1 (S1P1). [Related pubchem assays (depositor defined):AID1509, AID1523, AID1801, AID463107, AID463118, AID463119, AID463122, AID463123, AID463129, AID463225, AID504400, AID504460]; format: functional
Chain of Sphingosine 1-phosphate receptor 1 (P21453 whole entry): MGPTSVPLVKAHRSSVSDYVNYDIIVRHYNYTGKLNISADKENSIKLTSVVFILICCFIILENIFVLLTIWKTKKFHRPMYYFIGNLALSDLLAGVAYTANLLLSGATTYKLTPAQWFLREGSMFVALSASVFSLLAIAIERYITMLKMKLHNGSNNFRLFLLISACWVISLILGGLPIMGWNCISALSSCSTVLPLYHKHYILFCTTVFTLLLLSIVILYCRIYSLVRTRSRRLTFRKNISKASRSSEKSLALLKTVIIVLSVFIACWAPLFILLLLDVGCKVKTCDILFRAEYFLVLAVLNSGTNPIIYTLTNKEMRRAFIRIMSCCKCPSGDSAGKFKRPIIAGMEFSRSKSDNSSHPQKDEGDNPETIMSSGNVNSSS

[10] = test system: Streptococcus sp. 'group A'; assay: growth inhibition of control SK(-) GAS strain, dose response, counter-screen for streptokinase expression inhibitor project, luminescence, kanamycin, BacTiterGlo, confirmation (AID 1900); format: functional, organism-based
[11] = target: T3, Streptokinase A (Streptococcus pyogenes serotype M1, UniProt P10520); assay: S. pyogenes streptokinase expression inhibitors, potency, dose response, plasminogen activation absorbance, OD405 (AID 1914); format: functional, Streptococcus pyogenes M1 GAS;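 also: secreted streptokinase activity via plasminogen activation per viability signal from cell pellet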
T3 sequence (P10520 whole entry): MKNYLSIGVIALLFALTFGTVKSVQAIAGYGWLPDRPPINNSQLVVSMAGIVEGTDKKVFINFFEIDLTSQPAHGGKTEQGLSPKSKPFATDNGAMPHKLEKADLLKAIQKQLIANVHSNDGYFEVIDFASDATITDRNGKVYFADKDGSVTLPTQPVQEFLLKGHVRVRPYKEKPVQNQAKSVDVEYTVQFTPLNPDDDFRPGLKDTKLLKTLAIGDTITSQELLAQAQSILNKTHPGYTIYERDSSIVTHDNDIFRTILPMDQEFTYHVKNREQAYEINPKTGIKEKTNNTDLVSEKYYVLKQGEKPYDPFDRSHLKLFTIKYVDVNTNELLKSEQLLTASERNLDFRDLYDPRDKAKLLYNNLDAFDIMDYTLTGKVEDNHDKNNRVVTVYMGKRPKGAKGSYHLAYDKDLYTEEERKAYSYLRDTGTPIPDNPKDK

[12] = target: Luciferin 4-monooxygenase (Photinus pyralis, UniProt P08659); assay: firefly luciferase enzyme inhibitors, dose response, biochemical, luminescence (AID 1891)
Chain of Luciferin 4-monooxygenase (P08659 whole entry): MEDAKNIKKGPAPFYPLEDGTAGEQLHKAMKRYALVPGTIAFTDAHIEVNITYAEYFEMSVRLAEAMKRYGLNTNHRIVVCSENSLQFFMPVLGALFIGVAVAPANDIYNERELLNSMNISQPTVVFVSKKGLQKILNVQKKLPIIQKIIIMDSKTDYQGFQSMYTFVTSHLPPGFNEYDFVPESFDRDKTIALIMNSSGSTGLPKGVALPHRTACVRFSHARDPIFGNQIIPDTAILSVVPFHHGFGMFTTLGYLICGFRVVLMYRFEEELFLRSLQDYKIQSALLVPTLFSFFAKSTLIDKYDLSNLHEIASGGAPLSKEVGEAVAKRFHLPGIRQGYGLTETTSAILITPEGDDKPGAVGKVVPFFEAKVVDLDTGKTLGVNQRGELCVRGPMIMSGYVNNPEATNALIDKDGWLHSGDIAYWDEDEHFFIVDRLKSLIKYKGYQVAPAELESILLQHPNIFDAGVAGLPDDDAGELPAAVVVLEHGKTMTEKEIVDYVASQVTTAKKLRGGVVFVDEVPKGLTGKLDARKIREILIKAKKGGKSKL

[13] = target: T4, Estrogen receptor (Homo sapiens, UniProt P03372);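 also: potency for inhibiting coactivator peptide recruitment to the receptor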
T4 sequence (P03372 whole entry): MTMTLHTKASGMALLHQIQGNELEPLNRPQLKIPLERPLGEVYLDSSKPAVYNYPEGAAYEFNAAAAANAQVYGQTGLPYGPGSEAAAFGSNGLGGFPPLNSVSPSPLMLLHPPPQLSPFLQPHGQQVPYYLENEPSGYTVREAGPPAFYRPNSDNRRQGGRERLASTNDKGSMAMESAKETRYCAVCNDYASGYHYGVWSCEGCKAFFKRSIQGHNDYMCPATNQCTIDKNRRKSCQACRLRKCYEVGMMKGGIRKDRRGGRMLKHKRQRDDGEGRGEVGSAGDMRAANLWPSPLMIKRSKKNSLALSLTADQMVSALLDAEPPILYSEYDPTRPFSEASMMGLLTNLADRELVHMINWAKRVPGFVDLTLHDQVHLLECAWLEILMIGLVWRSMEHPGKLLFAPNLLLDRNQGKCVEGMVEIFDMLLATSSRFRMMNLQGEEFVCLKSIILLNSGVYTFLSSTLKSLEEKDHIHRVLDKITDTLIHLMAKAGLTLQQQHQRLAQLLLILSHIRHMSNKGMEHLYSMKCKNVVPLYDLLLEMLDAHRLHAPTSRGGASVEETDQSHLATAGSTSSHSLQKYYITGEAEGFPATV

[14] = Luminescence Cell-Based Dose Confirmation HTS to Identify Inhibitors of Platelet Dense Granule Release. [Related pubchem assays: 1663 (Primary HTS), 1678 (Summary of Project)]; format: functional
[15] = target: Sphingosine 1-phosphate receptor 4 (Homo sapiens, UniProt O95977); assay: Fluorescence dose response cell-based high throughput screening assay for agonists of the Sphingosine 1-Phosphate Receptor 4 (S1P4). [Related pubchem assays: 1509 (Primary screen.), 1523 (Confirmation screen in triplicates.)]; format: functional
Chain of Sphingosine 1-phosphate receptor 4 (O95977 whole entry): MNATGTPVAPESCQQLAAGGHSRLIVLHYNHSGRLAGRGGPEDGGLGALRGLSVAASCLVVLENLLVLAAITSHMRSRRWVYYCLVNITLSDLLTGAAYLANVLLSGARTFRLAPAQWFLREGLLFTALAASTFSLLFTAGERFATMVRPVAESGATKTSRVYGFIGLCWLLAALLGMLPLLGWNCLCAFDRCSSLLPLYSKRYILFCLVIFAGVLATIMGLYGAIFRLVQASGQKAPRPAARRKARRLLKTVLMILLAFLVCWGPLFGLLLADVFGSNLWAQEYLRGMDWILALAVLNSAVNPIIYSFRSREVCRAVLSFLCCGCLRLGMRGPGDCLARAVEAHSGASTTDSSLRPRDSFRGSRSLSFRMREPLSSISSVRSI

[16] = target: T5, Estrogen receptor beta (Homo sapiens, UniProt Q92731);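 also: recombinant ER-beta bound to coactivator SRC1 peptide in presence of estradiol agonist; inhibitors block coactivator peptide binding and lower the FRET signal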
T5 sequence (Q92731 whole entry): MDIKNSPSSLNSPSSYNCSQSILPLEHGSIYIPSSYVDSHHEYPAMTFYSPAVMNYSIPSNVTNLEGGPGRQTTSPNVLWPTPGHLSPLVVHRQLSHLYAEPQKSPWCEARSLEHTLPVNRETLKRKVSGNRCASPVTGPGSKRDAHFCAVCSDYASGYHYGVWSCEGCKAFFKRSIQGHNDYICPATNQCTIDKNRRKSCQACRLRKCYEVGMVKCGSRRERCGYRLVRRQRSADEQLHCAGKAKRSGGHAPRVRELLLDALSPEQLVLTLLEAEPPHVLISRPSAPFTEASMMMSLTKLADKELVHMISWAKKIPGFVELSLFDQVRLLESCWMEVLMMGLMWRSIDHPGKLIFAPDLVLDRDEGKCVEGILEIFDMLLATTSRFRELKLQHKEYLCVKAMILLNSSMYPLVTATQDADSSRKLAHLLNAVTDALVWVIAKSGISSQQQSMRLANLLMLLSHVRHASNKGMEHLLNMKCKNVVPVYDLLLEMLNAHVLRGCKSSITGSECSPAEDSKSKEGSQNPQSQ

[17] = target: T5, Estrogen receptor beta; assay: ERβ–SRC-3 coactivator interaction inhibitors, confirmation, orthogonal assay, biochemical, ELISA, streptavidin-HRP readout (AID 1060)
[18] = test system: Streptococcus; assay: Group A Streptococcus viability loss, dose response, counter-screen for streptokinase expression inhibitor project, luminescence, BacTiterGlo (AID 1915); format: functional, organism-based;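 also: potency for reduction of bacterial viability or growth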
[19] = target: Sphingosine 1-phosphate receptor 2 (Homo sapiens, UniProt O95136); assay: Dose Response Cell Based Assay for Agonists of the S1P2 Receptor. [Related pubchem assays: 729, 736, 843 ]; format: functional
Chain of Sphingosine 1-phosphate receptor 2 (O95136 whole entry): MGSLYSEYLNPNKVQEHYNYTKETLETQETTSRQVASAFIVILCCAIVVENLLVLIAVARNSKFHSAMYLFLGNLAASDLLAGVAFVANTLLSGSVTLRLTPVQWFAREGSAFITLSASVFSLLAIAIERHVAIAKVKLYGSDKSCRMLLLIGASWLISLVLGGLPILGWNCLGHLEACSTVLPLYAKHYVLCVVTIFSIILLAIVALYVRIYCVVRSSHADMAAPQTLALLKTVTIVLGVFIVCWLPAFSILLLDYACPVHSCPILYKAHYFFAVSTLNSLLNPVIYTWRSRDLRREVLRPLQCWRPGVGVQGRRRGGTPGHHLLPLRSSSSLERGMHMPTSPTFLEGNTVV

[20] = target: CAAX prenyl protease 1 (Saccharomyces cerevisiae S288c, UniProt P47154); assay: Ste24 protease inhibitors, dose response, biochemical, S. cerevisiae, plate reader, cherry-pick (AID 488815)
Chain of CAAX prenyl protease 1 (P47154 whole entry): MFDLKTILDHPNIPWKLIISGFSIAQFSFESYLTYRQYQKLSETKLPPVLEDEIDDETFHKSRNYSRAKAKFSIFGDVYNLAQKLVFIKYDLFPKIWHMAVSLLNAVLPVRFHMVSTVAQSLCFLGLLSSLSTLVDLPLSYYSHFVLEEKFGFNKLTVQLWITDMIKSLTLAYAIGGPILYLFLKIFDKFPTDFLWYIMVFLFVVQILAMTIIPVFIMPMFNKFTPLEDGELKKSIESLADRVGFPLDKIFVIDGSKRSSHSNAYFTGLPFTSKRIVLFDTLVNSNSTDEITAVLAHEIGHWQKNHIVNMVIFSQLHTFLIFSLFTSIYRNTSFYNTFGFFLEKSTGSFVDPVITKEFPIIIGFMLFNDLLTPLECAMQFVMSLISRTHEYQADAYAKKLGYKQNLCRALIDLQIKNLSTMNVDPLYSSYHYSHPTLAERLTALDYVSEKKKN

[21] = target: Dual specificity protein kinase CLK1 (Homo sapiens, UniProt P49759); assay: CLK1 kinase inhibitors, off-target check, dose response, selectivity assay for Dyrk1A inhibitor project, biochemical, cherry-picked samples (AID 588811)
Chain of Dual specificity protein kinase CLK1 (P49759 whole entry): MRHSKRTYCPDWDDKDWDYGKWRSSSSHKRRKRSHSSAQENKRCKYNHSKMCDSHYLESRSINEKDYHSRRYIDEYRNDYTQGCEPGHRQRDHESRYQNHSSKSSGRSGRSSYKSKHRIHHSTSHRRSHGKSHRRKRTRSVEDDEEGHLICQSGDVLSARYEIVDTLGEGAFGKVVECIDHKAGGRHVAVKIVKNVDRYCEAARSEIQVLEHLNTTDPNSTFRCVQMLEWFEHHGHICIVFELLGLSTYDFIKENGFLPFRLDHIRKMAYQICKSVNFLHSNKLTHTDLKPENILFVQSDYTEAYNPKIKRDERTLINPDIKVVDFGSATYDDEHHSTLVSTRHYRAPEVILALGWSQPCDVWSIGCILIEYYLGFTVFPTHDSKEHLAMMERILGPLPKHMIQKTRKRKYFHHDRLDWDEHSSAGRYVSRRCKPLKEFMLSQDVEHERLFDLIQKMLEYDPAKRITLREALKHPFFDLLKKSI

[22] = test system: BJ; assay: cytotoxicity toward BJ-TERT fibroblasts, dose response, cell-based, RAS-independent, luminescence (AID 1933); format: functional; settings: Homo sapiens
[23] = test system: BJ; assay: cells; format: functional, cell-based; settings: Homo sapiens
[24] = test system: BJ; assay: cytotoxicity toward BJ-TERT-LT-ST fibroblasts, dose response, cell-based, RAS-independent, luminescence (AID 1935); format: functional; settings: Homo sapiens;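 also: BJ fibroblasts immortalized with TERT plus LT and ST oncogenes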
[25] = cytotoxicity toward DRD oncogenic fibroblasts, dose response, cell-based, non-viral oncogenic, luminescence (AID 1934); format: functional; settings: Homo sapiens
[26] = cytotoxicity in HEK-293T cells, dose response, cytotoxicity control for TCR NF-kB inhibitor project, luminescence, T-cell screen hits (AID 489026); format: functional, cell-based;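 also: cells exposed to compound about 14 hours before the viability readout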
[27] = test system: BJ; assay: cytotoxicity toward Ras-transformed BJeLR fibroblasts, dose response, cell-based, alamar blue fluorescence, cherrypicked samples (AID 2631); format: functional; settings: Homo sapiens;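 also: confirmatory dose-response assay in RAS-dependent BJ fibroblasts engineered with TERT, LT and ST, with cytotoxicity read by fluorescence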
[28] = MDA-MB-231 cell growth inhibition, dose response, cytotoxicity control for RAD54 inhibitor project, CellTiter-Glo luminescence, cherry-pick (AID 651692); format: functional, cell-based
[29] = target: T6, DNA repair and recombination protein RAD54-like (Homo sapiens, UniProt Q92698); assay: inhibitors of human RAD54 branch migration, confirmation, biochemical, fluorescence, cherry-picked samples, dose series (AID 651657); format: functional
T6 sequence (Q92698 whole entry): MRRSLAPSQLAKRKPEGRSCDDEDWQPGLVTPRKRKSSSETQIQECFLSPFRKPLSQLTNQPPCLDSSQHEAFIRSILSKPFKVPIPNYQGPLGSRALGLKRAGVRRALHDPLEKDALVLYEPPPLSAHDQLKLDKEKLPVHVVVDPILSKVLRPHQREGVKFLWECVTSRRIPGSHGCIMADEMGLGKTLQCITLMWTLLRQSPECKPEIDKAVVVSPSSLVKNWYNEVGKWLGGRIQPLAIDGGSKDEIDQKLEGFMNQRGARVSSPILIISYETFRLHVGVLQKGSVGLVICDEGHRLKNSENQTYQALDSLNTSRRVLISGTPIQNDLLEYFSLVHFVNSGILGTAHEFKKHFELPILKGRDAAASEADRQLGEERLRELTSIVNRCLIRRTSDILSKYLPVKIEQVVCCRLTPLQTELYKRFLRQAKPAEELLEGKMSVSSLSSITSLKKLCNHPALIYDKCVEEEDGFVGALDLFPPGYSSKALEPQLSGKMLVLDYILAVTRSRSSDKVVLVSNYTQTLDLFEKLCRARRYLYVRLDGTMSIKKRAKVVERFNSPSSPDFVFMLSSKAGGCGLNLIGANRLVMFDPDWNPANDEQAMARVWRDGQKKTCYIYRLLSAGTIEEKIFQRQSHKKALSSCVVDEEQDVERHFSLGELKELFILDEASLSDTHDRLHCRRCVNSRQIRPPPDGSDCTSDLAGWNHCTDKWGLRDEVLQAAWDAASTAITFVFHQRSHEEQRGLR

[30] = target: T7, DNA repair protein RAD52 homolog (Homo sapiens, UniProt P43351); format: functional, biochemical
T7 sequence (P43351 whole entry): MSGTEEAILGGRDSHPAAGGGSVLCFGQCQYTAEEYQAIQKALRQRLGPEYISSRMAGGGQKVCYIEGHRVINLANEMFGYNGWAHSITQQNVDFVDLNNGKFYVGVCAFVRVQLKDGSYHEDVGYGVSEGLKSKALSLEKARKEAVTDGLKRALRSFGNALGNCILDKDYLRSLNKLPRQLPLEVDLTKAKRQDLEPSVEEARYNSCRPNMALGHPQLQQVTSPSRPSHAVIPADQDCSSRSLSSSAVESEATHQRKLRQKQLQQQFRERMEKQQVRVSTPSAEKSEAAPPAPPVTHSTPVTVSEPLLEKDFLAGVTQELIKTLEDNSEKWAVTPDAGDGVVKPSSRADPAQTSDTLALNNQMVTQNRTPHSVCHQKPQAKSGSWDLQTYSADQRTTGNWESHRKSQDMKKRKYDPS

[31] = target: Paired box protein Pax-8 (Homo sapiens, UniProt Q06710); assay: inhibitors of PAX8-driven TPO luciferase reporter, dose response, RMG-I cells, cherry-pick (AID 687027); format: functional, cell-based;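 also: luciferase reporter driven by Pax8 target thyroperoxidase promoter measured by SteadyGlo luminescence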
Chain of Paired box protein Pax-8 (Q06710 whole entry): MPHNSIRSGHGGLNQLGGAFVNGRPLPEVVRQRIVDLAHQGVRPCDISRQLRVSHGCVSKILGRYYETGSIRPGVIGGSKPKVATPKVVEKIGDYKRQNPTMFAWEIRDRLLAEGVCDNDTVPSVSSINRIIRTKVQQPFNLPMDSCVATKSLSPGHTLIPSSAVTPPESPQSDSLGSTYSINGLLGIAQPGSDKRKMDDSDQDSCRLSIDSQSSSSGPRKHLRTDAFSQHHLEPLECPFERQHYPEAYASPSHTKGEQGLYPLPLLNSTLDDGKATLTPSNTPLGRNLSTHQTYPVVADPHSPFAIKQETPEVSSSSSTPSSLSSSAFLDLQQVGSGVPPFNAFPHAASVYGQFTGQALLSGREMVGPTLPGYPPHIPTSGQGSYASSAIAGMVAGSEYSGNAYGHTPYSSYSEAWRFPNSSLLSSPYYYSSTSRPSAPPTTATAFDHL

[32] = Luminescence-based cell-based high throughput dose response assay to identify activators of the DAF-12 from the parasite S. stercoralis (ssDAF-12).; format: functional

For `O=C1NN(c2cccc(F)c2)C(=O)/C1=C1\C(=O)Nc2ccccc21`, the IC50 [1] was 199 µM (active), the IC50 [2] was < 0.4 µM (active) and the AC50 [3] was 4.9 µM (active). The AC50 [4] was 43.3 µM (active), the IC50 [5] was > 66 µM (inactive) and the IC50 [6] was > 66 µM (inactive).

For `COc1cc(-c2nc(-c3ccccc3)c(-c3cccs3)[nH]2)cc(OC)c1OC`, the EC50 [7] was 1.21 µM (active), the EC50 [8] was > 30 µM (not active) and the AC50 [3] was 50.3 µM (active). For the same compound, the AC50 [4] was 29.9 µM (active).

For `O=C(NCc1ccco1)c1cc2ccc(O)cc2oc1=O`, the EC50 [9] was 5.05 µM (active), the EC50 [10] was 7.99 µM (active) and the EC50 [11] was > 150 µM (not active). For the same compound, the EC50 [12] was 0.288 µM (active), the IC50 [13] was 14.3 µM (active) and the EC50 [14] was 1.82 µM (active). For the same compound, the EC50 [15] was 1.84 µM (active), the IC50 [16] was 3.57 µM (active) and the IC50 [17] was > 50 µM (not active). The EC50 [18] was 13.3 µM (active) and the EC50 [19] was 3.28 µM (active).

With `CC1=CC2=NC(=O)CC(C)(C(=O)N(CC(=O)NC3CCCC3)Cc3ccccc3)N2C=C1` (stereo not drawn) the AC50 [20] was 11.5 µM (active).

With `Cc1csc(CN(C)c2ncnc3ccc(-c4ccc5c(c4)OCO5)cc23)n1` the AC50 [21] was 2.23 µM (active).

For `O=C1c2cccc3cc([N+](=O)[O-])cc(c23)C(=O)N1CCN1CCCC1` [PINAFIDE], the EC50 [9] was 3.11 µM (active), the EC50 [22] was 5.47 µM (inconclusive) and the EC50 [23] was 9.59 µM (active). For the same compound, the EC50 [15] was > 5.53 µM (not active), the EC50 [24] was > 150 µM (inconclusive) and the EC50 [25] was 5.03 µM (inconclusive). For the same compound, the IC50 [26] was > 80 µM (inactive), the EC50 [27] was 0.478 µM (active) and the IC50 [5] was > 66 µM (inactive). For the same compound, the IC50 [6] was 44.7 µM (inactive), the AC50 [28] was 16 µM (inactive) and the AC50 [29] was 2.94 µM (active). The AC50 [30] was 8.44 µM (active), the AC50 [31] was 0.87 µM (active) and the IC50 [32] was > 67.5 µM (inactive).
